Some test systems named below: MOLT-4; OVCAR-5; OVCAR-3; ACHN; NCI-H522; HCT-116; MCF7; Malme-3M; RPMI-8226; TK-10; A498; OVCAR-4; MDA-MB-435; NCI-H23; NCI/ADR-RES; SNB-19; PC-3; UACC-257; CAKI-1; SK-MEL-2.
Common to all, as to test: NCI tumour cell line growth inhibition, 48 h

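Growth conditions: 96-well plates. Treatment: test compound, 48 hours, 5 concentrations. Analysis: linear interpolation between bracketing concentrations; unreached endpoints set to highest concentration. The concentration for 50% growth inhibition is given as GI50.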 Active and inactive are the calls of the source. Rule as the data show it: active = GI50 up to about 1.1 µM and inactive = higher. Bounds are passed on as bounds.

This is an account of results in ChEMBL document CHEMBL1201862, “PubChem BioAssay data set” (2004).

As for `Cc1cc(=O)n2nc(SCc3ccccc3)sc2n1`, the GI50 in the experiment with MOLT-4 is 46.5 µM (inactive); with OVCAR-5, > 100 µM (inactive); in the experiment on OVCAR-3 it was > 100 µM (inactive); with ACHN, 22.8 µM (inactive); in the experiment on NCI-H522 it was > 100 µM (inactive); with HCT-116, > 100 µM (inactive). For the same molecule, the GI50 is > 100 µM (inactive) in the experiment on MCF7; > 100 µM (inactive) in the experiment on Malme-3M; > 100 µM (inactive) in the experiment with RPMI-8226; 34.4 µM (inactive) in the experiment with TK-10; > 100 µM (inactive) in the experiment on A498; > 100 µM (inactive) in the experiment on OVCAR-4. Further, the GI50 was 66.4 µM (inactive) in the experiment on MDA-MB-435; > 100 µM (inactive) with NCI-H23; > 100 µM (inactive) in the experiment on NCI/ADR-RES; > 100 µM (inactive) in the experiment on SNB-19; > 100 µM (inactive) in the experiment with PC-3.
With `CN(C)C1(N(C)C)Oc2c(c(=O)n(C)c(=O)n2C)C(c2ccccc2Br)C1(F)F` (stereo not given), the GI50 with MOLT-4, in the experiment with OVCAR-5, with OVCAR-3, with ACHN, in the experiment with UACC-257 and in the experiment on HCT-116 was > 100 µM (inactive) throughout. For the same molecule, the GI50 in the experiment with CAKI-1, with MCF7, in the experiment with RPMI-8226, in the experiment on TK-10, in the experiment with SK-MEL-2 and in the experiment on A498 was > 100 µM (inactive) throughout. In addition, the GI50 in the experiment with OVCAR-4, in the experiment on MDA-MB-435, with NCI-H23, with NCI/ADR-RES, with SNB-19 and with PC-3 was > 100 µM (inactive) in each case.
For the molecule `CC(=O)O[C@H]1C(=O)[C@@]2(C)[C@H]([C@H](OC(=O)c3ccccc3)[C@]3(O)C[C@H](OC(=O)[C@H](O)[C@@H](NC(=O)c4ccccc4)c4cccc(N(C)C)c4)C(C)=C1C3(C)C)[C@]1(OC(C)=O)CO[C@@H]1C[C@@H]2O`, the GI50 in the experiment on MOLT-4 is 0.013 µM (active); in the experiment with OVCAR-5 it was 0.157 µM (active); in the experiment on OVCAR-3, 0.0308 µM (active); in the experiment with ACHN it was 0.7 µM (active); in the experiment on UACC-257, 0.714 µM (active); with NCI-H522, 0.0533 µM (active). In addition, the GI50 was 0.0174 µM (active) in the experiment with HCT-116; > 48.3 µM (inactive) with CAKI-1; 0.0164 µM (active) in the experiment on MCF7; 0.00968 µM (active) in the experiment on RPMI-8226; 1.41 µM (inactive) in the experiment with TK-10; 0.0301 µM (active) in the experiment with SK-MEL-2. The GI50 in the experiment on A498 was 0.579 µM (active); in the experiment on MDA-MB-435, 0.00893 µM (active); in the experiment on NCI-H23, 0.0755 µM (active); with NCI/ADR-RES it was > 28.2 µM (inactive); with SNB-19, 0.148 µM (active); in the experiment on PC-3, 0.209 µM (active).
Turning to `CC#CC#C/C=C1/C=CC2(CCCCO2)O1` (stereo not given), the GI50 with MOLT-4 was 33.5 µM (inactive); with OVCAR-5 it was > 100 µM (inactive); in the experiment with UACC-257, > 100 µM (inactive); in the experiment with NCI-H522, 40.1 µM (inactive); in the experiment on HCT-116, > 100 µM (inactive); in the experiment with CAKI-1, > 100 µM (inactive). In addition, the GI50 is 94.4 µM (inactive) in the experiment on MCF7; > 100 µM (inactive) in the experiment with Malme-3M; > 100 µM (inactive) in the experiment with TK-10; > 100 µM (inactive) in the experiment with SK-MEL-2; > 100 µM (inactive) in the experiment on A498; > 100 µM (inactive) with OVCAR-4. Further, the GI50 with MDA-MB-435 was > 100 µM (inactive); in the experiment with NCI-H23, > 100 µM (inactive); in the experiment with NCI/ADR-RES, > 100 µM (inactive); with SNB-19, 40.6 µM (inactive); in the experiment with PC-3, > 100 µM (inactive).
